The source of these data is ChEMBL document CHEMBL4418300, “Uses of fahd1” (2016).

By IC50 is commonly meant the midpoint of a concentration-inhibition curve.

The target of the experiment is T1, Oxaloacetate tautomerase FAHD1, mitochondrial (Homo sapiens, UniProt Q6P587).
T1 sequence (Q6P587 whole entry): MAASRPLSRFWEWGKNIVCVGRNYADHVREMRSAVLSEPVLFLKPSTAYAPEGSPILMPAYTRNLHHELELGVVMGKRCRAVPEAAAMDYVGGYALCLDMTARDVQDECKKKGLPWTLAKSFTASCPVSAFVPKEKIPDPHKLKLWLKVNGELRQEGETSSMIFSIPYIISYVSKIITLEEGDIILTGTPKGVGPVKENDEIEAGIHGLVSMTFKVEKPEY
Nature of the experiment: Inhibition of wild-type recombinant N-terminal His6 and S-tagged full-length human FAHD1 expressed in Escherichia coli using oxaloacetate as substrate by photometric analysis.

Turning to `O=C([O-])C(=O)[O-].[Na+].[Na+]` [SODIUM OXALATE], the IC50 was 20 µM.
